Reference: patent publication US12275733B2, “Substituted pyrido[3,4-b]indoles for the treatment of cartilage disorders” (Sanofi, priority 2016, dated 2025)

Test system: ATDC5 cells
Assay: Chondrogenesis activity assay in ATDC5 cells (collagen type II induction, immunofluorescence)
Type: cell-based, mouse
Conditions: Mus musculus; for EC50: collagen type II induction in ATDC5 cells, concentration reaching 50% of maximum induction; for Emax: maximum percent induction of collagen type II relative to internal reference compound at 10 μM, ATDC5 cells
Summary of the method: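 Mouse ATDC5 cells in insulin (10 μg/ml)-containing DMEM/F12 differentiation medium with 5% FCS were exposed to compound, typically 40 nM–10 μM at 0.1% DMSO, for 4 days at 37 °C. Intracellular collagen type II was quantified by Alexa Fluor 488 immunostaining with high-content imaging, relative to DMSO and a 10 μM reference compound.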

EC50 [nM] | SMILES | Emax [%]
> 10000 | Clc1cc(-c2cccnc2)c2c(c1)c1ccncc1n2CC1CC1 [Example 280, 6-Chloro-9-cyclopropylmethyl-8-pyridin-3-yl-9H-pyrido[3,4-b]indole] | < 20
1500 | CCn1c2c(-c3cccnc3Cl)cc(Cl)cc2c2ccnc(C)c21 [Example 58, 6-Chloro-8-(2-chloro-pyridin-3-yl)-9-ethyl-1-methyl-9H-pyrido[3,4-b]indole] | 20 to 50
4500 | CCc1nccc2c1[nH]c1c(-c3ccc(OC)cc3)cc(Cl)cc12 [Example 153, 6-Chloro-1-ethyl-8-(4-methoxy-phenyl)-9H-pyrido[3,4-b]indole] | 50 to 80
2300 | Cc1nccc2c1[nH]c1c(-c3ccc(OC(F)(F)F)cc3)cc(Cl)cc12 [Example 262] | > 80
330 | COc1ccc(-c2cc(Cl)cc3c2[nH]c2c(C)nccc23)cc1O [Example 180, 5-(6-Chloro-1-methyl-9H-pyrido[3,4-b]indol-8-yl)-2-methoxy-phenol] | > 80
1600 | Cc1nccc2c1[nH]c1c(-c3ccc4c(c3)CC(C)O4)cc(Cl)cc12 (stereo not shown) [Example 23, 6-Chloro-1-methyl-8-(2-methyl-2,3-dihydro-benzofuran-5-yl)-9H-pyrido[3,4-b]indole] | 50 to 80
1600 | FC(F)(F)Cn1c2cnccc2c2cc(Cl)cc(-c3cccnc3)c21 [Example 57, 6-Chloro-8-pyridin-3-yl-9-(2,2,2-trifluoro-ethyl)-9H-pyrido[3,4-b]indole] | < 20
570 | Cc1nccc2c1[nH]c1c(-c3cnn(Cc4ccccn4)c3)cc(Cl)cc12 [Example 242, 6-Chloro-1-methyl-8-(1-pyridin-2-ylmethyl-1H-pyrazol-4-yl)-9H-pyrido[3,4-b]indole] | > 80
1400 | Cc1cc(-c2ccc(Cl)nc2Cl)c2[nH]c3c(C)nccc3c2c1 [Example 108, 8-(2,6-Dichloro-pyridin-3-yl)-1,6-dimethyl-9H-pyrido[3,4-b]indole] | > 80
750 | COc1ccc(-c2cc(Cl)cc3c4ccncc4n(C4CC4)c23)cc1 [Example 289, 6-Chloro-9-cyclopropyl-8-(4-methoxy-phenyl)-9H-pyrido[3,4-b]indole] | > 80
190 | Cc1nccc2c1[nH]c1c(-c3ccc(OCc4cccc(F)n4)cc3)cc(Cl)cc12 [Example 226, 6-Chloro-8-[4-(6-fluoro-pyridin-2-ylmethoxy)-phenyl]-1-methyl-9H-pyrido[3,4-b]indole] | 50 to 80
1800 | COCCn1c2cnccc2c2cc(Cl)cc(-c3ccc(Cl)nc3Cl)c21 [Example 111, 6-Chloro-8-(2,6-dichloro-pyridin-3-yl)-9-(2-methoxy-ethyl)-9H-pyrido[3,4-b]indole] | 50 to 80
410 | Cc1nccc2c3cc(Cl)cc(-c4cnccc4Cl)c3n(CC3CC3)c12 [Example 283, 6-Chloro-8-(4-chloro-pyridin-3-yl)-9-cyclopropylmethyl-1-methyl-9H-pyrido[3,4-b]indole] | < 20
1900 | CCn1c2c(-c3cnn(Cc4ccccc4)c3)cc(Br)cc2c2ccnc(C)c21 [Example 208, 8-(1-Benzyl-1H-pyrazol-4-yl)-6-bromo-9-ethyl-1-methyl-9H-pyrido[3,4-b]indole] | > 80
170 | Cc1nccc2c3cc(Cl)cc(-c4cnn(C)c4)c3n(C)c12 [Example 25, 6-Chloro-1,9-dimethyl-8-(1-methyl-1H-pyrazol-4-yl)-9H-pyrido[3,4-b]indole] | > 80
590 | Fc1ccc(-c2cc(Cl)cc3c4ccncc4n(CC(F)(F)F)c23)c(F)n1 [Example 63, 6-Chloro-8-(2,6-difluoro-pyridin-3-yl)-9-(2,2,2-trifluoro-ethyl)-9H-pyrido[3,4-b]indole] | 20 to 50
> 10000 | Cc1nccc2c1[nH]c1c(-c3ccc(OCc4ccccc4)cc3)cc(Cl)cc12 [Example 177, 8-(4-Benzyloxy-phenyl)-6-chloro-1-methyl-9H-pyrido[3,4-b]indole] | 20 to 50
750 | COc1ccc(-c2cc(Cl)cc3c2[nH]c2c(C)nccc23)cn1 [Example 94, 6-Chloro-8-(6-methoxy-pyridin-3-yl)-1-methyl-9H-pyrido[3,4-b]indole] | > 80
4500 | Nc1ncc(-c2cc(Cl)cc3c4ccncc4n(CC(F)(F)F)c23)cn1 [Example 132, 5-[6-Chloro-9-(2,2,2-trifluoro-ethyl)-9H-pyrido[3,4-b]indol-8-yl]-pyrimidin-2-ylamine] | 20 to 50

EC50 [nM] | SMILES | Emax [%]
310 | Cc1nccc2c1[nH]c1c(-c3ccc(CN4CCOCC4)cc3)cc(Cl)cc12 [Example 224, 6-Chloro-1-methyl-8-(4-morpholin-4-ylmethyl-phenyl)-9H-pyrido[3,4-b]indole] | > 80
1700 | Cc1nccc2c1[nH]c1c(-c3ccc(OC4CCCC4)cc3)cc(Cl)cc12 [Example 225, 6-Chloro-8-(4-cyclopentyloxy-phenyl)-1-methyl-9H-pyrido[3,4-b]indole] | > 80
> 10000 | CCn1c2c(-c3cccc(N4CCOCC4)c3)cc(Cl)cc2c2ccnc(C)c21 [Example 253, 6-Chloro-9-ethyl-1-methyl-8-(3-morpholin-4-yl-phenyl)-9H-pyrido[3,4-b]indole] | 20 to 50
6100 | Cc1nccc2c3cc(Cl)cc(-c4ccc(Cl)nc4Cl)c3n(CC3CC3)c12 [Example 285, 6-Chloro-9-cyclopropylmethyl-8-(2,6-dichloro-pyridin-3-yl)-1-methyl-9H-pyrido[3,4-b]indole] | 20 to 50
8200 | Cc1nccc2c1[nH]c1c(-c3ccc(N4CCCCC4)nc3)cc(Cl)cc12 [Example 101, 6-Chloro-1-methyl-8-(3,4,5,6-tetrahydro-2H-[1,2′]bipyridinyl-5′-yl)-9H-pyrido[3,4-b]indole] | 20 to 50
600 | COCCn1c2cnccc2c2cc(Cl)cc(-c3ccc(OC)cc3)c21 [Example 201, 6-Chloro-9-(2-methoxy-ethyl)-8-(4-methoxy-phenyl)-9H-pyrido[3,4-b]indole] | > 80
46 | CCn1c2c(-c3ccc(Cl)cc3)cc(Cl)cc2c2ccnc(C)c21 [Example 148, 6-Chloro-8-(4-chloro-phenyl)-9-ethyl-1-methyl-9H-pyrido[3,4-b]indole] | > 80
> 10000 | COc1ccc(-c2cc(Cl)cc3c2[nH]c2c(C)nccc23)cc1OC [Example 172, 6-Chloro-8-(3,4-dimethoxy-phenyl)-1-methyl-9H-pyrido[3,4-b]indole] | 20 to 50
> 10000 | FC(F)(F)Cn1c2cnccc2c2cc(Cl)cc(-c3cncnc3)c21 [Example 126, 6-Chloro-8-pyrimidin-5-yl-9-(2,2,2-trifluoro-ethyl)-9H-pyrido[3,4-b]indole] | 20 to 50
160 | Cc1nccc2c1[nH]c1c(-c3ccc(OCC4COCCO4)cc3)cc(Cl)cc12 (stereo not shown) [Example 40, 6-Chloro-8-[4-([1,4]dioxan-2-ylmethoxy)-phenyl]-1-methyl-9H-pyrido[3,4-b]indole] | > 80
1000 | CCn1c2c(-c3cnn(C)c3)cc(C)cc2c2ccnc(C)c21 [Example 15, 9-Ethyl-1,6-dimethyl-8-(1-methyl-1H-pyrazol-4-yl)-9H-pyrido[3,4-b]indole] | 50 to 80
490 | FC(F)(F)Cn1c2cnccc2c2cc(Cl)cc(-c3cnn(Cc4ccncc4)c3)c21 [Example 112, 6-Chloro-8-(1-pyridin-4-ylmethyl-1H-pyrazol-4-yl)-9-(2,2,2-trifluoro-ethyl)-9H-pyrido[3,4-b]indole] | > 80
570 | CCn1c2cnccc2c2cc(Cl)cc(-c3ccc(OC)nc3)c21 [Example 70, 6-Chloro-9-ethyl-8-(6-methoxy-pyridin-3-yl)-9H-pyrido[3,4-b]indole] | > 80
41 | Cc1cc(-c2cc(Cl)cc3c4ccnc(C)c4n(CC4CC4)c23)cnc1C#N [Example 48, 5-(6-Chloro-9-cyclopropylmethyl-1-methyl-9H-pyrido[3,4-b]indol-8-yl)-3-methyl-pyridine-2-carbonitrile] | < 20
2100 | Nc1ccc(-c2cc(Cl)cc3c4ccncc4n(CC4CC4)c23)c(Cl)n1 [Example 53, 6-Chloro-5-(6-chloro-9-cyclopropylmethyl-9H-pyrido[3,4-b]indol-8-yl)-pyridin-2-ylamine] | 50 to 80
660 | Cc1nccc2c1[nH]c1c(-c3ccc([S+](C)[O-])cc3)cc(Cl)cc12 (stereo not shown) [Example 243, 6-Chloro-8-(4-methanesulfinyl-phenyl)-1-methyl-9H-pyrido[3,4-b]indole] | > 80
41 | Cc1nccc2c3cc(Cl)cc(-c4cnc5c(c4)OCCN5C)c3n(CC3CC3)c12 [Example 49, 6-Chloro-9-cyclopropymethyl-1-methyl-8-(4-methyl-3,4-dihydro-2H-pyrido[3,2-b][1,4]oxazin-7-yl)-9H-pyrido[3,4-b]indole] | < 20
370 | Cc1nccc2c1[nH]c1c(-c3ccc(C(O)c4ccccn4)cc3)cc(Cl)cc12 (stereo not shown) [Example 32, [4-(6-Chloro-1-methyl-9H-pyrido[3,4-b]indol-8-yl)-phenyl]-pyridin-2-yl-methanol] | 50 to 80
590 | CCn1c2c(-c3cnn(Cc4ccc(C)nc4C)c3)cc(Cl)cc2c2ccnc(C)c21 [Example 121, 6-Chloro-8-[1-(2,6-dimethyl-pyridin-3-ylmethyl)-1H-pyrazol-4-yl]-9-ethyl-1-methyl-9H-pyrido[3,4-b]indole] | > 80
